The test system of data set [1] is MCP-1 induced migration of THP-1 cells. Conditions: cited from earlier work.
Data set [2] relates to endotoxin-stimulated TNF-alpha levels. Nature of the data set: Murine sub-lethal endotoxemia model, serum TNF-α by ELISA. The format is in vivo, mice. The protocol:
FIG. 2 is a graph showing the results of a murine sub-lethal endotoxemia test.
The anti-inflammatory efficacy of an exemplar compound according to the present invention was tested using the murine sub-lethal endotoxemia model.
Briefly, the method is as follows. Female CD1 mice (28-30g, ˜7 weeks of age) were dosed with their respective treatment in sterile filtered 1% CMC by oral gavage in a dose volume of 10 ml/kg one hour prior to an endotoxin (LPS) challenge. The endotoxin challenge was injected by the intraperitoneal route containing 675,000 Endotoxin Units of LPS (E. coli strain 0111:B4 (Code L4130)) in endotoxin free PBS. Mice were left for two hours and then exsanguinated under terminal anaesthesia and blood was taken. Serum was prepared from this terminal bleed and aliquoted and stored at −20° C. Serum TNF-α levels were measured by ELISA per manufacturers instructions (R and D Systems).
Eight animals were treated in each group, and the data for the animal with the highest and lowest TNF-α level in each group were eliminated, and the mean and standard error reported for the remaining six animals.

In data set [3] the test system is MCP-1 induced migration of THP-1 cells. Nature of the data set: Inhibition of MCP-1 induced leukocyte migration (transwell, THP-1 cells). It is filed as cell-based. Conditions: Homo sapiens, MCP-1 25 ng/ml, 2 hours 37° C., read-out: ED50 (concentration required to reduce MCP-1-induced migration by 50%). The protocol: A. Inhibition of MCP-1 Induced Leukocyte Migration
In principle, this assay consists of two chambers separated by a porous membrane. The chemoattractant is placed in the lower compartment and the cells are placed in the upper compartment. After incubation for a period at 37° C. the cells move towards the chemoattractant, and the number of cells in the lower compartment is proportional to the chemoattractant activity (relative to a series of controls).
This assay can be used with a range of different leukocyte populations. For example, freshly prepared human peripheral blood leukocytes may used. Alternatively, leukocyte subsets may be prepared, including polymorphonuclear cells or lymphocytes or monocytes using methods well known to those skilled in the art such as density gradient centrifugation or magnetic bead separations. Alternatively, immortal cell lines which have been extensively validated as models of human peripheral blood leukocytes may be used, including, but not limited to THP-1 cells as a model of monocytes or Jurkat cells as model of naive T cells.
The transwell migration systems are manufactured by Neuroprobe, Gaithersburg, Md., USA.
The plates used are ChemoTx plates (Neuroprobe 101-8) and 30 μl clear plates (Neuroprobe MP30).
Geys' Balanced Salt Solution is purchased from Sigma (Sigma G-9779).
Fatty acid-free BSA is purchased from Sigma (Sigma A-8806). […]

Data set [4] relates to chemokine-induced migration. Conditions: cited from earlier work.
The conditions of data set [5]: 37° C.; cited from earlier work.
For data set [6] the following is noted: cited from earlier work.

Some results are limits rather than exact numbers.

In the case of `CCCCCCCCCCC(C)(C)C(=O)NC1CCCCNC1=O` (stereo not drawn) [2′2′-dimethyldodecenanoyl-3-aminocaprolactam], the “potency as a BSCI relative to dodecanoyl-3-aminocaprolactam” value in data set [1] (MCP-1 induced THP-1 cell migration assay) is reported as 10 fold. With `CCCCCCCCCC(C)(C)CC(=O)NC1CCCCNC1=O` (stereo not drawn) [3′3′-dimethyldodecanoyl-3-aminocaprolactam], in data set [1], the “potency as a BSCI relative to the linear alkyl analogs” value is “no more potent”. As to `O=C1NCCCC[C@@H]1NC(=O)C12CC3CC(CC(C3)C1)C2` [(S)-3-(adamantane-1-carbonyl)aminocaprolactam], the “anti-inflammatory effect in vivo compared with the compound of Example 4” value in data set [2] (1 mg/kg p.o.) is reported as “similar”.

Turning to `O=C1NCCC[C@@H]1NS(=O)(=O)c1ccc(F)cc1` [Example 1, (S)-4-Fluoro-N-(2-oxopiperidin-3-yl)benzenesulfonamide], the melting point lay within 153 to 156 °C. With `O=C1NCCC[C@@H]1NS(=O)(=O)c1cccc(F)c1` [Example 2, (S)-3-Fluoro-N-(2-oxopiperidin-3-yl)benzenesulfonamide], the melting point lay in the range of 159 to 160 °C. `O=C1NCCC[C@@H]1NS(=O)(=O)c1ccccc1F` [Example 3, (S)-2-Fluoro-N-(2-oxopiperidin-3-yl)benzenesulfonamide] yielded a melting point of 180 to 183 °C. On to `O=C1NCCC[C@@H]1NS(=O)(=O)c1ccc(C(F)(F)F)cc1` [Example 4, (S)—N-(2-Oxopiperidin-3-yl)-4-(trifluoromethyl)-benzenesulfonamide], for which the “inhibition of endotoxin-stimulated TNF-alpha levels” value in data set [2] (female CD1 mice, single dose 10 mg/kg p.o. one hour prior to LPS, serum 2 hours after LPS) is 60-70%. `O=C1NCCC[C@@H]1NS(=O)(=O)c1cccc(C(F)(F)F)c1` [Example 5, (S)—N-(2-Oxopiperidin-3-yl)-3-(trifluoromethyl)benzenesulfonamide] showed a melting point of 158 to 160 °C. The same measure, in the same setting: next, `O=C1NCCC[C@@H]1NS(=O)(=O)c1ccccc1C(F)(F)F` [Example 6, (S)—N-(2-oxopiperidin-3-yl)-2-(trifluoromethyl)benzenesulfonamide]: 161 to 163 °C; `O=C1NCCC[C@@H]1NS(=O)(=O)c1ccc(F)cc1F` [Example 7, (S)-2,4-difluoro-N-(2-oxopiperidin-3-yl)benzenesulfonamide]: 162 to 163 °C. On the same count and under the same terms, next, `O=C1NCCC[C@@H]1NS(=O)(=O)c1cc(F)ccc1F` [Example 8, (S)-2,5-difluoro-N-(2-oxopiperidin-3-yl)benzenesulfonamide]: 183 to 185 °C; `O=C1NCCC[C@@H]1NS(=O)(=O)c1c(F)cccc1F` [Example 9, (S)-2,6-difluoro-N-(2-oxopiperidin-3-yl)benzenesulfonamide]: 152 to 153 °C; `O=C1NCCC[C@@H]1NS(=O)(=O)c1ccc(F)c(F)c1` [Example 10, (S)-3,4-difluoro-N-(2-oxopiperidin-3-yl)benzenesulfonamide]: 153 to 155 °C. Still for that read-out and setting: then `O=C1NCCC[C@@H]1NS(=O)(=O)c1cc(F)cc(F)c1` [Example 11, (S)-3,5-difluoro-N-(2-oxopiperidin-3-yl)benzenesulfonamide], with 170 to 174 °C. `CC(C)(C)c1ccc(S(=O)(=O)N[C@H]2CCCNC2=O)cc1` [Example 16, (S)-3-(4′-tert-Butylbenzenesulfonylamino)-tetrahydropyridin-2-one] showed a melting point of 155 to 156 °C. `CCCCCCCCc1ccc(S(=O)(=O)N[C@H]2CCCNC2=O)cc1` [Example 19, (S)-3-(4′-Octylbenzenesulfonylamino)-tetrahydropyridin-2-one] came in with a melting point of 98 to 99 °C. For `Cc1ccc(S(=O)(=O)NC2CCCNC2=O)cc1` (stereo not drawn) [Reference Example 1, 3-(4′-Methylbenzenesulfonylamino)tetrahydropyridin-2-one], in data set [3], the EC50 is no more than 100 nM. The same measure, in the same setting: then `Cc1ccc(S(=O)(=O)NC2CCCCNC2=O)cc1` (stereo not drawn) [Reference Example 2, 3-(4′-Methylbenzenesulfonylamino)azepan-2-one], with no more than 100 nM.

As for `CCCCCCCCCC=CC(=O)NC1CCCCNC1=O` (stereo not drawn) [dodec-2′,3′-enoyl-3-aminocaprolactam], in data set [4], the “potency as BSCI relative to compounds with corresponding saturated alkyl tail groups” value is “markedly lower potency”.

Turning to `O=C1CCC(N2C(=O)c3ccccc3C2=O)C(=O)N1` (stereo not drawn) [thalidomide], the “anti-inflammatory effect on TNF-α levels in vivo compared with the compound of Example 4” value in data set [2] (thalidomide 10 mg/kg p.o., positive control, maximally effective dose) is recorded as “quantitatively similar”. As to “(S)-3-(undec-10-enoyl)-tetrahydropyridin-2-one”, the “stability in human serum (completely stable for)” value in data set [5] is on record as “at least 7 days”. Besides, the “potency compared with the parental molecule (S)-3-(undec-10-enoyl)-aminoglutarimide” value in data set [4] is “considerably reduced potency”.

As to “c(DCys-DGln-DIle-DTrp-DLys-DGIn-DLys-DPro-DAsp-DLeu-DCys)-NH2 [NR58-3.14.3]”, the “half-life of clearance from blood plasma” value in data set [6] (after intravenous injection) is on record as “less than 30 minutes”. For the same compound, the oral bioavailability result in data set [6] (in vivo, po) is listed as “not orally bioavailable”.

The record behind these values is US20130203734A1, “ANTI-INFLAMMATORY AGENTS” (priority 2010, published 2013).
